Measured values taken from US9493506B2 (Enanta Pharmaceuticals, Inc., priority 2010, dated 2016).

Legend:
Format in all cases: cell-based, hepatitis C virus (genotype 1a-H77)
[1] = test system: HCV replicon with a D168E mutation in a 1a-H77 background; experiment: transient replicon assay, D168E mutation in 1a-H77 background; details: Hepatitis C virus, read-out: EC50 in a transient replicon assay with a D168E mutation in a 1a-H77 background
Protocol: (§1) Replicon cell lines can be maintained in Dulbecco's modified Eagles medium (DMEM) containing 100 IU/ml penicillin, […] streptomycin (Invitrogen), […] G418 (Invitrogen) and 10% (v/v) fetal bovine serum (FBS). Replicon-containing cells can be seeded into 96 well plates at a density of 5000 cells per well in 100 μl DMEM containing 5% FBS. The next day, the compound can be initially diluted in dimethyl sulfoxide (DMSO) to generate a 200× stock of the inhibitor in a series of 8 half-log dilutions. The dilution series can then be diluted 100-fold in the medium containing 5% FBS. One hundred microliters of medium with the inhibitor can be added to each well of the overnight cell culture plate already containing 100 μl of DMEM with 5% FBS. In assays where the protein binding effect on inhibitor potency is assessed, the medium from the overnight cell culture plates can be replaced with 200 μl DMEM containing 40% human plasma (Innovative Research) plus 5% FBS as well as compound. The cells can be grown for 4 days in tissue culture incubators. The inhibitory effects of compounds against the replicons can be determined by measuring either the level of luciferase or HCV RNA. The luciferase assay can be conducted using a Luciferase Assay System kit (Promega) following the manufacturer's instructions. Briefly, the cell culture medium is removed and wells are washed with 200 μl of phosphate-buffered saline. To each well Passive Lysis buffer (Promega, Wis.) is added and the plates are incubated for 30 min with rocking to lyse the cells. Luciferin solution (50 μl, Promega) is added, and luciferase activity is measured with a Victor II luminometer (Perkin-Elmer). To determine HCV RNA levels, RNA extractions can be performed using the CellsDirect kit (Invitrogen), and the HCV RNA copy number can be measured using the SuperScript III Platinum One-Step qRT-PCR system (Invitrogen) and primers specific to the HCV 5′ nontranslated region. Cytotoxicity can be determined by the 3-[4,5-dimethylhiazol-2-yl]-2,5-diphenyltetrazolium bromide (MTT) colorimetric assay as follows. Replicon cells is plated in 96-well plates (4000 cells per well), the next day compound dilutions are added as in the activity assay, and the cells are grown in the presence of the inhibitors for 4 days. The MTT solution is diluted in DMEM containing 5% FBS and 60 μl of the solution is added to the cells. After 4 hrs, the cells are solubilized by the addition of 30 […]μl SDS (20% in 0.02 N HCl). The plates are incubated overnight and the optical density can be measured at 570 nm. To determine compounds' EC50 and TD50, luciferase, RNA inhibition and MTT data can be analyzed using the GraphPad Prism 4 software (equation: sigmoidal dose-response—variable slope).
(§2) The 1a-H77 replicon for transient assays further differs from the replicon in the stable cell line in that it contains NS2 through NS5B in the second cistron. The 1b-N strain replicon contains NS3 through NS5B in the second cistron, with adaptive mutations E1202G in NS3 and S2204I in NS5A. Mutagenesis can be performed using the Stratagene QuikChange XL II site-directed mutagenesis kit. Mutants' sequences can be confirmed, plasmids can be linearized with Xba I restriction enzyme and used as template for in vitro transcription reactions to make mutant replicon RNA for transient transfections. In vitro transcription can be performed with the T7 Megascript kit (Ambion).
(§3) Transient replicon transfections can be performed essentially as described by Mo et al. (Antimicrob Agents Chemother (2005) 49(10):4305-4314) with slight modifications. Fifteen micrograms of template RNA can be used to electroporate 3×10^6 cells in a 200 μl volume in a 0.2 cm cuvette. The cells used for transient transfections can be Huh7 cells obtained by curing replicon-containing cells with IFN (Mo et al., supra). Electroporation can be done with a Gene Pulser II (Bio-Rad, CA) at 480V and 25 μF, using two manual pulses. […]

[2] = test system: HCV replicon with a D168V mutation in a 1a-H77 background; experiment: transient replicon assay, D168V mutation in 1a-H77 background; details: Hepatitis C virus, read-out: EC50 in a transient replicon assay with a D168V mutation in a 1a-H77 background
Protocol: as §1, §2, §3

[3] = test system: HCV replicon with a R155K mutation in a 1a-H77 background; experiment: transient replicon assay, R155K mutation in 1a-H77 background; details: Hepatitis C virus, read-out: EC50 in a transient replicon assay with a R155K mutation in a 1a-H77 background
Protocol: as §1, §2, §3

Structure (SMILES)	EC50 [1] [nM]	EC50 [2] [nM]	EC50 [3] [nM]
CC(C)(C)OC(=O)N[C@H]1CCCCC/C=C\[C@@H]2C[C@@]2(C(=O)NS(=O)(=O)C2CC2)NC(=O)[C@@H]2C[C@@H](Oc3nc4ccccc4nc3C(C)(F)F)CN2C1=O [Example 1, tert-butyl (2R,6S,13aS,14aR,16aS,Z)-14a-(cyclopropylsulfonylcarbamoyl)-2-(3-(1,1-difluoroethyl)quinoxalin-2-yloxy)-5,16-dioxo-1,2,3,5,6,7,8,9,10,11,13a,14,14a,15,16,16a-hexadecahydrocyclopropa[e]pyrrolo[1,2-a][1,4]diazacyclopentadecin-6-ylcarbamate]	3 to 20	50 to 250	< 1
CC(F)(F)c1nc2ccccc2nc1O[C@@H]1C[C@H]2C(=O)N[C@]3(C(=O)NS(=O)(=O)C4CC4)C[C@H]3/C=C\CCCCC[C@H](NC(=O)c3ccon3)C(=O)N2C1 [Example 3, N-((2R,6S,13aS,14aR,16aS,Z)-14a-(cyclopropylsulfonylcarbamoyl)-2-(3-(1,1-difluoroethyl)quinoxalin-2-yloxy)-5,16-dioxo-1,2,3,5,6,7,8,9,10,11,13a,14,14a,15,16,16a-hexadecahydrocyclopropa[e]pyrrolo[1,2-a][1,4]diazacyclopentadecin-6-yl)isoxazole-3-carboxamide]	< 3	50 to 250	< 1
CC(C)(C)C(=O)N[C@H]1CCCCC/C=C\[C@@H]2C[C@@]2(C(=O)NS(=O)(=O)C2CC2)NC(=O)[C@@H]2C[C@@H](Oc3nc4ccccc4nc3C(C)(F)F)CN2C1=O [Example 4, (2R,6S,13aS,14aR,16aS,Z)—N-(cyclopropylsulfonyl)-2-(3-(1,1-difluoroethyl)quinoxalin-2-yloxy)-5,16-dioxo-6-pivalamido-1,2,3,5,6,7,8,9,10,11,13a,14,14a,15,16,16a-hexadecahydrocyclopropa[e]pyrrolo[1,2-a][1,4]diazacyclopentadecine-14a-carboxamide]	3 to 20	50 to 250	1 to 10
CC(F)(F)c1nc2ccccc2nc1O[C@@H]1C[C@H]2C(=O)N[C@]3(C(=O)NS(=O)(=O)C4(C)CC4)C[C@H]3/C=C\CCCCC[C@H](NC(=O)c3ccon3)C(=O)N2C1 [Example 5, N-((2R,6S,13aS,14aR,16aS,Z)-2-(3-(1,1-difluoroethyl)quinoxalin-2-yloxy)-14a-(1-methylcyclopropylsulfonylcarbamoyl)-5,16-dioxo-1,2,3,5,6,7,8,9,10,11,13a,14,14a,15,16,16a-hexadecahydrocyclopropa[e]pyrrolo[1,2-a][1,4]diazacyclopentadecin-6-yl)isoxazole-3-carboxamide]	< 3	< 25	< 1
Cc1onc(C(=O)N[C@H]2CCCCC/C=C\[C@@H]3C[C@@]3(C(=O)NS(=O)(=O)C3CC3)NC(=O)[C@@H]3C[C@@H](Oc4nc5ccccc5nc4C(C)(F)F)CN3C2=O)c1C [Example 6, N-((2R,6S,13aS,14aR,16aS,Z)-14a-(cyclopropylsulfonylcarbamoyl)-2-(3-(1,1-difluoroethyl)quinoxalin-2-yloxy)-5,16-dioxo-1,2,3,5,6,7,8,9,10,11,13a,14,14a,15,16,16a-hexadecahydrocyclopropa[e]pyrrolo[1,2-a][1,4]diazacyclopentadecin-6-yl)-4,5-dimethylisoxazole-3-carboxamide]	< 3	50 to 250	1 to 10
Cc1onc(C(=O)N[C@H]2CCCCC/C=C\[C@@H]3C[C@@]3(C(=O)NS(=O)(=O)C3(C)CC3)NC(=O)[C@@H]3C[C@@H](Oc4nc5ccccc5nc4C(C)(F)F)CN3C2=O)c1C [Example 7, N-((2R,6S,13aS,14aR,16aS,Z)-2-(3-(1,1-difluoroethyl)quinoxalin-2-yloxy)-14a-(1-methylcyclopropylsulfonylcarbamoyl)-5,16-dioxo-1,2,3,5,6,7,8,9,10,11,13a,14,14a,15,16,16a-hexadecahydrocyclopropa[e]pyrrolo[1,2-a][1,4]diazacyclopentadecin-6-yl)-4,5-dimethylisoxazole-3-carboxamide]	< 3	25 to 50	1 to 10
